This is an account of results in patent US6582351B1, “Imidazopyridinone derivatives and their use as phosphodiesterase inhibitors” (Fujisawa Pharmaceutical Co., Ltd., priority 1999, dated 2003).

By melting point is commonly meant the temperature of the solid-liquid transition.

Compound `COc1ccc(Cn2c(=O)n([C@H]3CC[C@H](O)CC3)c3ccc(C(F)(F)F)cc32)cc1OC` [Example 1, 3-(3,4-dimethoxybenzyl)-1-(trans-4-hydroxycyclohexyl)-5-trifluoromethyl-2,3-dihydro-1H-benzimidazol-2-one] yielded a melting point of 108 to 110 °C.

For `COc1cc(Cn2c(=O)n(C3CCCC3)c3ccc([N+](=O)[O-])cc32)ccc1Cl` [Example 2(2), 3-(4-Chloro-3-methoxybenzyl)-1-cyclopentyl-5-nitro-2,3-dihydro-1H-benzimidazol-2-one], the melting point is 170 to 171.5 °C.

For `COc1ccc(Cn2c(=O)n([C@H]3CC[C@H](O)CC3)c3ccc([N+](=O)[O-])cc32)cc1OC` [Example 2(3), 3-(3,4-Dimethoxybenzyl)-1-(trans-4-hydroxycyclohexyl)-5-nitro-2,3-dihydro-1H-benzimidazol-2-one], the melting point fell in the range of 175 to 176 °C.

Compound `COc1ccc(Cn2c(=O)n([C@H]3CC[C@H](O)CC3)c3ccc(C#N)cc32)cc1OC` [Example 2(5), 5-Cyano-3-(3,4-dimethoxybenzyl)-1-(trans-4-hydroxycyclohexyl)-2,3-dihydro-1H-benzimidazol-2-one] registered a melting point of 209 to 210 °C.

Consider `COc1ccc(Cn2c(=O)n([C@H]3CC[C@H](O)CC3)c3ccc(C(C)=O)cc32)cc1OC` [Example 2(7), 5-Acetyl-3-(3,4-dimethoxybenzyl)-1-(trans-4-hydroxycyclohexyl)-2,3-dihydro-1H-benzimidazol-2-one], for which the melting point lay in the range of 169 to 170 °C.

Consider `COc1ccc(Cn2c(=O)n([C@H]3CC[C@H](NC=O)CC3)c3ccc(C(F)(F)F)cc32)cc1OC` [Example 2(8), 3-(3,4-Dimethoxybenzyl)-1-(trans-4-formamidocyclohexyl)-5-trifluoromethyl-2,3-dihydro-1H-benzimidazol-2-one], for which the melting point lay within 158 to 160.5 °C.

For the compound `COc1ccc(Cn2c(=O)n([C@H]3CC[C@H](O)CC3)c3ccc(Cl)cc32)cc1OC` [Example 2(9), 5-Chloro-3-(3,4-dimethoxybenzyl)-1-(trans-4-hydroxycyclohexyl)-2,3-dihydro-1H-benzimidazol-2-one], the melting point lay within 166 to 167 °C.

Turning to `COC(=O)c1ccc2c(c1)n(Cc1ccc(OC)c(OC)c1)c(=O)n2[C@H]1CC[C@H](O)CC1` [Example 2(10), 3-(3,4-Dimethoxybenzyl)-1-(trans-4-hydroxycyclohexyl)-5-methoxycarbonyl-2,3-dihydro-1H-benzimidazol-2-one], the melting point was in the range of 148 to 149.5 °C.

With `COc1ccc2c(c1)n(Cc1ccc(OC)c(OC)c1)c(=O)n2[C@H]1CC[C@H](O)CC1` [Example 2(11), 3-(3,4-Dimethoxybenzyl)-1-(trans-4-hydroxycyclohexyl)-5-methoxy-2,3-dihydro-1H-benzimidazol-2-one], the melting point was in the range of 176 to 177 °C.

`COc1ccc(Cn2c(=O)n([C@H]3CC[C@H](OC(C)=O)CC3)c3ncc(C(F)(F)F)cc32)cc1OC` [Example 2(12), 3-(trans-4-Acetoxycyclohexyl)-1-(3,4-dimethoxybenzyl)-6-trifluoromethyl-2,3-dihydro-1H-imidazo[4,5-b]pyridin-2-one] gave a melting point of 130 to 133 °C.

In turn, `COc1ccc(Cn2c(=O)n(C3CCCC3)c3ncc(C(F)(F)F)cc32)cc1OC` [Example 2(13), 3-Cyclopentyl-1-(3,4-dimethoxybenzyl)-6-trifluoromethyl-2,3-dihydro-1H-imidazo[4,5-b]pyridin-2-one] registered a melting point of 115 to 116 °C.

For `COc1ccc(Cn2c(=O)n([C@H]3CC[C@H](OC(C)=O)CC3)c3ncc(C(F)(F)F)cc32)cc1Cl` [Example 2(15), 3-(trans-4-Acetoxycyclohexyl)-1-(3-chloro-4-methoxybenzyl)-6-trifluoromethyl-2,3-dihydro-1H-imidazo[4,5-b]pyridin-2-one], the melting point is 165 to 166 °C.

Take `COc1ccc(Cn2c(=O)n([C@H]3CC[C@H](O)CC3)c3ccc([N+](=O)[O-])cc32)cc1Cl` [Example 2(16), 3-(3-Chloro-4-methoxybenzyl)-1-(trans-4-hydroxycyclohexyl)-5-nitro-2,3-dihydro-1H-benzimidazol-2-one]: the melting point was in the range of 142 to 142.5 °C.

For `COc1ccc(Cn2c(=O)n(C3CCCC3)c3ncc(C(F)(F)F)cc32)cc1Cl` [Example 2(17), 1-(3-Chloro-4-methoxybenzyl)-3-cyclopentyl-6-trifluoromethyl-2,3-dihydro-1H-imidazo[4,5-b]pyridin-2-one], the melting point was 156 to 157 °C.

Turning to `COc1ccc(Cn2c(=O)n([C@H]3CCN(C(=O)OC(C)(C)C)C3)c3ccc(C(F)(F)F)cc32)cc1OC` [Example 2(18), 1-((S)-1-tert-Butoxycarbonylpyrrolidin-3-yl)-3-(3,4-dimethoxybenzyl)-5-trifluoromethyl-2,3-dihydro-1H-benzimidazol-2-one], the melting point is 122 to 122.5 °C.

Turning to `COc1ccc(Cn2c(=O)n([C@H]3CCN(C(=O)OC(C)(C)C)C3)c3ccc(C(F)(F)F)cc32)cc1Cl` [Example 2(19), 1-((S)-1-tert-Butoxycarbonylpyrrolidin-3-yl)-3-(3-chloro-4-methoxybenzyl)-5-trifluoromethyl-2,3-dihydro-1H-benzimidazol-2-one], the melting point was 157 to 157.5 °C.

In turn, `COc1ccc(Cn2c(=O)n(-c3ccc4[nH]cnc4c3)c3ccc(C(F)(F)F)cc32)cc1OC` [Example 2(20), 1-(1H-Benzimidazol-5-yl)-3-(3,4-dimethoxybenzyl)-5-trifluoromethyl-2,3-dihydro-1H-benzimidazol-2-one] returned a melting point of 174 to 175 °C.

In turn, `COc1ccc(Cn2c(=O)n([C@H]3CC[C@H](O)CC3)c3ccc(C(C)=O)cc32)cc1Cl` [Example 2(22), 5-Acetyl-3-(3-chloro-4-methoxybenzyl)-1-(trans-4-hydroxycyclohexyl)-2,3-dihydro-1H-benzimidazol-2-one] had a melting point of 209 to 210 °C.

On to `COc1ccc(Cn2c(=O)n([C@H]3CC[C@H](O)CC3)c3ccc(C(F)(F)F)cc32)cc1Cl` [Example 2(24), 3-(3-Chloro-4-methoxybenzyl)-1-(trans-4-hydroxycyclohexyl)-5-trifluoromethyl-2,3-dihydro-1H-benzimidazol-2-one], for which the melting point was in the range of 167 to 168 °C.

Regarding `COc1c(Cl)cc(Cn2c(=O)n([C@H]3CC[C@H](O)CC3)c3ccc([N+](=O)[O-])cc32)cc1Cl` [Example 2(26), 3-(3,5-Dichloro-4-methoxybenzyl)-1-(trans-4-hydroxycyclohexyl)-5-nitro-2,3-dihydro-1H-benzimidazol-2-one], the melting point was 115 to 116 °C.

`COC(=O)c1ccc2c(c1)n(Cc1ccc(OC)c(Cl)c1)c(=O)n2[C@H]1CC[C@H](O)CC1` [Example 2(27), 3-(3-Chloro-4-methoxybenzyl)-1-(trans-4-hydroxycyclohexyl)-5-methoxycarbonyl-2,3-dihydro-1H-benzimidazol-2-one] returned a melting point of 174 to 175 °C.

The compound `CCOc1ccc(Cn2c(=O)n([C@H]3CC[C@H](O)CC3)c3ccc(C(F)(F)F)cc32)cc1Cl` [Example 2(29), 3-(3-Chloro-4-ethoxybenzyl)-1-(trans-4-hydroxycyclohexyl)-5-trifluoromethyl-2,3-dihydro-1H-benzimidazol-2-one] displayed a melting point of 147.5 to 149 °C.

As to `COc1ccc(Cn2c(=O)n([C@H]3CC[C@H](O)CC3)c3ccc(C(F)(F)F)cc32)cc1F` [Example 2(30), 3-(3-Fluoro-4-methoxybenzyl)-1-(trans-4-hydroxycyclohexyl)-5-trifluoromethyl-2,3-dihydro-1H-benzimidazol-2-one], the melting point is 178 to 179 °C.

`COc1ccc(Cn2c(=O)n([C@H]3CC[C@H](O)CC3)c3ccc(C(F)(F)F)cc32)cc1Br` [Example 2(31), 3-(3-Bromo-4-methoxybenzyl)-1-(trans-4-hydroxycyclohexyl)-5-trifluoromethyl-2,3-dihydro-1H-benzimidazol-2-one] returned a melting point of 182 to 182.5 °C.

For the compound `COc1ccc(Cn2c(=O)n(C(C)(C)C)c3ccc(C(F)(F)F)cc32)cc1Cl` [Example 2(32), 1-(tert-Butyl)-3-(3-chloro-4-methoxybenzyl)-5-trifluoromethyl-2,3-dihydro-1H-benzimidazol-2-one], the melting point was in the range of 130.5 to 131.5 °C.

Take `COc1ccc(Cn2c(=O)n(C3CCOCC3)c3ccc(C(F)(F)F)cc32)cc1Cl` [Example 2(34), 3-(3-Chloro-4-methoxybenzyl)-1-(tetrahydro-4H-pyran-4-yl)-5-trifluoromethyl-2,3-dihydro-1H-benzimidazol-2-one]: the melting point is 175 to 176 °C.

`COc1ccc(Cn2c(=O)n(C(C)C)c3ccc(C(F)(F)F)cc32)cc1Cl` [Example 2(35), 3-(3-Chloro-4-methoxybenzyl)-1-isopropyl-5-trifluoromethyl-2,3-dihydro-1H-benzimidazol-2-one] displayed a melting point of 153.5 to 155 °C.

Take `CCCCn1c(=O)n(Cc2ccc(OC)c(Cl)c2)c2cc(C(F)(F)F)ccc21` [Example 2(36), 1-Butyl-3-(3-chloro-4-methoxybenzyl)-5-trifluoromethyl-2,3-dihydro-1H-benzimidazol-2-one]: the melting point fell in the range of 122 to 124 °C.

Compound `COc1ccc(Cn2c(=O)n(C3CCCCC3)c3ccc(C(F)(F)F)cc32)cc1Cl` [Example 2(37), 1-Cyclohexyl-3-(3-chloro-4-methoxybenzyl)-5-trifluoromethyl-2,3-dihydro-1H-benzimidazol-2-one] displayed a melting point of 160 to 161 °C.

Regarding `COc1ccc(Cn2c(=O)n([C@H]3CC[C@H](O)CC3)c3ccc([N+](=O)[O-])cc32)cc1C#N` [Example 2(97), 3-(3-Cyano-4-methoxybenzyl)-1-(trans-4-hydroxycyclohexyl)-5-nitro-2,3-dihydro-1H-benzimidazol-2-one], the melting point lay within 122 to 124 °C.

`COC(=O)c1cnc2c(c1)n(Cc1ccc(OC)c(Cl)c1)c(=O)n2[C@H]1CC[C@H](O)CC1` [Example 2(98), 1-(3-Chloro-4-methoxybenzyl)-3-(trans-4-hydroxycyclohexyl)-6-methoxycarbonyl-2,3-dihydro-1H-imidazo[4,5-b]pyridin-2-one] gave a melting point of 146 to 148 °C.
